Target: T1, Prostaglandin G/H synthase 2 (Homo sapiens, UniProt P35354)
T1 sequence (P35354 whole entry): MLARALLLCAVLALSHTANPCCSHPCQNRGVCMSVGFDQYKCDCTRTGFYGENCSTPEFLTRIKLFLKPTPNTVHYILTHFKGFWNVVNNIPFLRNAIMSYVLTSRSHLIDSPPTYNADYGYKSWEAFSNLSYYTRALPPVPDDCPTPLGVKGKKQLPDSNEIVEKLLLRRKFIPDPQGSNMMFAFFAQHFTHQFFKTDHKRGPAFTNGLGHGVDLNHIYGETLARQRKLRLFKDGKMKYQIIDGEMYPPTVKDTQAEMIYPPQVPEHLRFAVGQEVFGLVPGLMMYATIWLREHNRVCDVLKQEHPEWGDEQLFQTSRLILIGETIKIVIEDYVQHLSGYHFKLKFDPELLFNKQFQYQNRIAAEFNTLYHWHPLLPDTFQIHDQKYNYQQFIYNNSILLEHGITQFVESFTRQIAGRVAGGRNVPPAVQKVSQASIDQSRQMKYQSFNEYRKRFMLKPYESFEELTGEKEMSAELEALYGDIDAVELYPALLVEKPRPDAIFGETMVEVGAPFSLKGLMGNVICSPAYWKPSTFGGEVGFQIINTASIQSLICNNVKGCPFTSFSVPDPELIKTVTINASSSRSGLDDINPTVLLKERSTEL
Test: Inhibition of COX-2 (unknown origin) by enzyme immune assay

## C=C1CC[C@@H]2[C@H](CC2(C)C)C(=C)CC[C@H]1O
  IC50: 88 nM
